Laboratory results taken from US7741493B2, “Heterocyclic compounds as P2X7 ion channel blockers” (Aventis Pharmaceuticals Inc., priority 2003, dated 2010).
Structures can show the parent of a compound that is named as a salt. Where two headings read alike, the source gives them in different places.

Target: T1, P2X7 (Homo sapiens, UniProt Q99572)
T1 sequence (Q99572 1-595): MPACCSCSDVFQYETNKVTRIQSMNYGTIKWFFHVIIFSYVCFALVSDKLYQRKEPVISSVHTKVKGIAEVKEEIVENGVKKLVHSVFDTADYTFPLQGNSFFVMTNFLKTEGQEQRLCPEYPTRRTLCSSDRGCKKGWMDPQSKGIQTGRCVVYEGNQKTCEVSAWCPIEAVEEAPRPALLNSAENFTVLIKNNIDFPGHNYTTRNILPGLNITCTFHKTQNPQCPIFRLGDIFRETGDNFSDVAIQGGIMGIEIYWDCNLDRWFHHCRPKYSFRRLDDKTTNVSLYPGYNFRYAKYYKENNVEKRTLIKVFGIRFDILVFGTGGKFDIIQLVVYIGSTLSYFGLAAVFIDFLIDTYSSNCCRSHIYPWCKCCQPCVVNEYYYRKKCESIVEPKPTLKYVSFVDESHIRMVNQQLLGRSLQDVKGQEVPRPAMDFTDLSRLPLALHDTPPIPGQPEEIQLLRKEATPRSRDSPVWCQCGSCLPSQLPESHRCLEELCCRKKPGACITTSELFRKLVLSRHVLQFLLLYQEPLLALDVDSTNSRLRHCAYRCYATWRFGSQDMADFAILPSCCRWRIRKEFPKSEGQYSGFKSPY
Experiment: YO-PRO-1 dye uptake assay in U373 cells stably expressing P2X7
Type: cell-based
Parameters: The complete open reading frame of human P2X7 was amplified from Incyte clone 148057; expressed in transfected cells
Settings: dye uptake through P2X7, U373 cells, 300 μM BzATP, 5 μM YO-PRO-1, test compounds 30 nM to 3 μM
Experimental: Following a 24-hr exposure to DNA, cells were trypsinized and re-seeded at low density in the presence of […] G418. After incubation for 2 weeks, isolated clones were selected with cloning cylinders and replated in […] G418. Cell clones were then expanded. Clones were screened for P2X7 by applying ATP and recording the resultant current using patch clamp electrophysiology.
U373 cells stably expressing P2X7 were used to screen drugs via a dye uptake assay. Cells were plated overnight on collagen coated 96-well plates at a density of 35,000 cells per well. The following day, culture media was replaced with Mg^++ and Ca^++-free Hank's balanced salt solution and various concentrations of test compounds ranging from 30 nM to 3 μM. Cells were then allowed to incubate with test compounds at 37° C. for 20 minutes. Following this incubation period YO-PRO-1 dye (Molecular Probes, Eugene, Oreg., final concentration 5 μM) and 2′-& 3′-O-(4-Benzolybenzoyl)-Adenosine 5′-triphosphate (Sigma Chemical, St Louis, Mo., final concentration 300 μM) were added to the cells sequentially. Cells were then incubated at 37° C. for 1.5 hours. […] Fluorescence in the presence of test substances was compared to that in the absence of test substances (control).

Row | IC50 (read-out: IC50) | SMILES | IC50 (IC50 (nM))
1 | 409 nM | Fc1cccc([C@H]2NC(Cc3ccc(F)cc3F)=N[C@H]2c2cccc(F)c2)c1 [2-(2,4-Difluorobenzyl)-cis-4,5-bis-(3-fluorophenyl)-4,5-dihydro-1H-imidazole trifluoroacetate] | –
2 | 625 nM | O=C(Nc1ccccc1)OC(C1=NC(c2ccccc2)C(c2ccccc2)N1)c1ccccc1 (stereo not drawn) [trifluoroacetate] | –
3 | 587 nM | Clc1ccccc1CNC1=N[C@@H](c2ccccc2)[C@@H](c2ccccc2)N1 [cis-4,5-diphenyl-2-(2-chlorobenzyl)amino-4,5-dihydro-1H-imidazole] | –
4 | 346 nM | Fc1ccc(OCC2=N[C@@H](c3cccc(F)c3)[C@@H](c3cccc(F)c3)N2)cc1 [2-[(4-Fluorophenoxy)methyl]-cis-4,5-bis-(3-fluorophenyl)-4,5-dihydro-1H-imidazole] | –
5 | 371 nM | Fc1ccc([C@H]2NC(NCc3ccccc3)=N[C@H]2c2ccc(F)cc2)cc1 [[cis-4,5-bis-(4-Fluorophenyl)-4,5-dihydro-1H-imidazol-2-yl]-benzylamine hydrochloride] | –
6 | 146 nM | Fc1cccc([C@H]2NC(CCc3ccccc3)=N[C@H]2c2cccc(F)c2)c1 [cis-4,5-bis(3-fluorophenyl)-2-(2-phenylethyl)-4,5-dihydro-1H-imidazole] | –
7 | 50 nM | c1ccc(C2N=C(C3Cc4ccccc4C3)NC2c2ccccc2)cc1 (stereo not drawn) [2-indan-2-yl-4,5-diphenyl-4,5-dihydro-1H-imidazole trifluoroacetate] | –
8 | 110 nM | C[C@H](C1=N[C@@H](c2ccccc2)[C@@H](c2ccccc2)N1)c1ccccc1 [trifluoroacetate] | –
9 | 300 nM | Fc1ccc(CSC2=N[C@@H](c3ccccc3)[C@@H](c3ccccc3)N2)cc1 [cis-4,5-diphenyl-2-(4-fluorobenzyl)thio-4,5-dihydro-1H-imidazole] | –
10 | 214 nM | c1ccc(CSC2=N[C@@H](c3ccccc3)[C@@H](c3ccccc3)N2)cc1 [cis-4,5-diphenyl-2-benzylthio-4,5-dihydro-1H-imidazole] | –
11 | 405 nM | C[C@@]1(c2ccccc2)N=C(COc2ccccc2)N[C@@H]1c1ccccc1 (relative stereo) [2-[(Phenoxy)methyl]-cis-4,5-diphenyl-4-methyl-4,5-dihydro-1H-imidazole trifluoroacetate] | –
12 | 247 nM | Fc1ccc(CNC2=N[C@@H](c3cccc(Cl)c3)[C@@H](c3cccc(Cl)c3)N2)cc1F [[cis-4,5-bis-(3-Chlorophenyl)-4,5-dihydro-1H-imidazol-2-yl]-(3,4-difluorobenzyl)-amine hydrochloride] | –
13 | 243 nM | Cc1ccccc1CNC1=N[C@@H](c2ccccc2)[C@@H](c2ccccc2)N1 [cis-4,5-diphenyl-2-(2-methylbenzyl)amino-4,5-dihydro-1H-imidazole] | –
14 | 240 nM | Fc1cccc(CSC2=N[C@@H](c3ccccc3)[C@@H](c3ccccc3)N2)c1 [cis-4,5-diphenyl-2-(3-fluorobenzyl)thio-4,5-dihydro-1H-imidazole] | –
15 | 449 nM | Fc1cccc([C@H]2NC(Cc3ccccc3F)=N[C@H]2c2cccc(F)c2)c1 [2-(2-Fluorobenzyl)-cis-4,5-bis-(3-fluorophenyl)-4,5-dihydro-1H-imidazole trifluoroacetate] | –
16 | 104 nM | C[C@@]1(c2ccccc2)N=C(COc2cccc(F)c2)N[C@@H]1c1ccccc1 (relative stereo) [2-[(3-Fluorophenoxy)methyl]-cis-4,5-diphenyl-4-methyl-4,5-dihydro-1H-imidazole trifluoroacetate] | –
17 | 331 nM | Fc1ccc(CCNC2=N[C@@H](c3ccccc3)[C@@H](c3ccccc3)N2)cc1 [cis-4,5-diphenyl-2-[2-(4-fluorophenyl)ethylamino]-4,5-dihydro-1H-imidazole] | –

Row | IC50 (read-out: IC50) | SMILES | IC50 (IC50 (nM))
18 | 378 nM | Fc1ccc(CNC2=N[C@@H](c3ccccc3Cl)[C@@H](c3ccccc3Cl)N2)cc1F [[cis-4,5-bis-(2-Chlorophenyl)-4,5-dihydro-1H-imidazol-2-yl]-(3,4-difluorobenzyl)-amine hydrochloride] | –
19 | 147 nM | CN(Cc1ccccc1)C1=N[C@@H](c2ccccc2)[C@@H](c2ccccc2)N1 [(cis-4,5-Diphenyl-4,5-dihydro-1H-imidazol-2-yl)-N-methylbenzylamine hydrochloride] | –
20 | 87 nM | Fc1ccccc1CCNC1=N[C@@H](c2ccccc2)[C@@H](c2ccccc2)N1 [(cis-4,5-Diphenyl-4,5-dihydro-1H-imidazol-2-yl)-[2-(2-fluorophenyl)ethyl]amine hydrochloride] | –
21 | 107 nM | Cc1cccc([C@H]2NC(NCc3ccc(F)cc3)=N[C@H]2c2cccc(C)c2)c1 [[cis-4,5-bis-(3-Methylphenyl)-4,5-dihydro-1H-imidazol-2-yl]-(4-fluorobenzyl)amine hydrochloride] | –
22 | – | Cc1ccccc1CC1=N[C@H](c2ccccc2)[C@H](c2ccccc2)N1 [cis-4,5-diphenyl-2-(2-methylbenzyl)-4,5-dihydro-1H-imidazole] | 321 nM
23 | 90 nM | Fc1cccc([C@H]2NC(NCc3ccccc3)=N[C@H]2c2cccc(F)c2)c1 [[cis-4,5-bis-(3-Fluorophenyl)-4,5-dihydro-1H-imidazol-2-yl]-benzylamine hydrochloride] | –
24 | 77 nM | Fc1cc(CNC2=N[C@@H](c3ccccc3)[C@@H](c3ccccc3)N2)cc(F)c1F [(cis-4,5-Diphenyl-4,5-dihydro-1H-imidazol-2-yl)-(3,4,5-trifluorobenzyl)amine hydrochloride] | –
25 | 121 nM | Cc1cccc([C@H]2NC(NCc3cccc(F)c3)=N[C@H]2c2cccc(C)c2)c1 [[cis-4,5-bis-(3-Methylphenyl)-4,5-dihydro-1H-imidazol-2-yl]-(3-fluorobenzyl)amine hydrochloride] | –
26 | 160 nM | CC(OCC1=N[C@@](C)(c2ccccc2)[C@@H](c2ccccc2)N1)C1CCCC1 (relative stereo) [2-[(1-Cyclopentyl-1-ethoxy)methyl]-cis-4,5-diphenyl-4-methyl-4,5-dihydro-1H-imidazole hydrochloride] | –
27 | 304 nM | Fc1cccc([C@H]2NC(CCc3ccccc3F)=N[C@H]2c2cccc(F)c2)c1 [2-[2-(2-Fluorophenyl)ethyl]-cis-4,5-bis-(3-fluorophenyl)-4,5-dihydro-1H-imidazole trifluoroacetate] | –
28 | 612 nM | c1ccc(OCC2=N[C@@H](c3ccccc3)[C@@H](c3ccccc3)N2)cc1 [cis-4,5-diphenyl-2-phenoxymethyl-4,5-dihydro-1H-imidazole] | –
29 | 173 nM | Fc1cccc([C@H]2NC(CCc3ccc(F)c(F)c3)=N[C@H]2c2cccc(F)c2)c1 [2-[2-(3,4-Difluorophenyl)ethyl]-cis-4,5-bis-(3-fluorophenyl)-4,5-dihydro-1H-imidazole] | –
30 | – | c1ccc(CCC2=N[C@H](c3ccccc3)[C@H](c3ccccc3)N2)cc1 [cis-4,5-diphenyl-2-(2-phenylethyl)-4,5-dihydro-1H-imidazole] | 77 nM
31 | 139 nM | Cc1ccccc1[C@H]1NC(NCc2ccc(F)cc2)=N[C@H]1c1ccccc1C [[cis-4,5-bis-(2-Methylphenyl)-4,5-dihydro-1H-imidazol-2-yl]-(4-fluorobenzyl)amine hydrochloride] | –
32 | 743 nM | C[C@@]1(c2ccccc2)N=C(COc2ccccc2Cl)N[C@@H]1c1ccccc1 (relative stereo) [2-[(2-Chlorophenoxy)methyl]-cis-4,5-diphenyl-4-methyl-4,5-dihydro-1H-imidazole hydrochloride] | –
33 | 330 nM | Fc1cccc([C@H]2NC(Cc3cccc(Cl)c3)=N[C@H]2c2cccc(F)c2)c1 [2-(3-Chlorobenzyl)-cis-4,5-bis-(3-fluorophenyl)-4,5-dihydro-1H-imidazole trifluoroacetate] | –

Row | SMILES | IC50 (read-out: IC50) | IC50 (IC50 (nM))
34 | C[C@@H](CC1=N[C@@H](c2ccccc2)[C@@H](c2ccccc2)N1)c1ccccc1 | 13 nM | –
35 | CC(C1=N[C@](C)(c2ccccc2)[C@H](c2ccccc2)N1)c1ccc(Cl)cc1 (relative stereo) [2-[1-(4-Chlorophenyl)-1-ethyl]-cis-4,5-diphenyl-4-methyl-4,5-dihydro-1H-imidazole trifluoroacetate] | 331 nM | –
36 | CC(C1=N[C@](C)(c2ccccc2)[C@H](c2ccccc2)N1)c1ccccc1 (relative stereo) [2-(1-Phenyl-1-ethyl)-cis-4,5-diphenyl-4-methyl-4,5-dihydro-1H-imidazole trifluoroacetate] | 68 nM | –
